From patent US11331299B2, “Medicinal use of serrulatane diterpenes” (The University of Sydney, priority 2016, dated 2022)

Experiments:
Experiment in all cases: biochemical
Format in all cases: binding
[1] = biological target: receptors (Bioprint panel) (Homo sapiens, UniProt Q9Y5N1); details: HISTAMINE H3 (h) (agonist radioligand); 10 μM; read-out: % Inhibition of Control Specific Binding
[2] = biological target: receptors (Bioprint panel) (Homo sapiens, UniProt P31391); details: SOMASTATIN sst4 (h) (agonist radioligand); 10 μM; read-out: % Inhibition of Control Specific Binding
[3] = biological target: receptors (Bioprint panel) (Homo sapiens, UniProt P35368); details: […] alpha 1B (h) (antagonist radioligand); 10 μM; read-out: % Inhibition of Control Specific Binding
[4] = biological target: receptors (Bioprint panel) (Homo sapiens, UniProt P30872); details: SOMASTATIN sst1 (h) (agonist radioligand); 10 μM; read-out: % Inhibition of Control Specific Binding
[5] = biological target: receptors (Bioprint panel) (Homo sapiens, UniProt P13945); details: Adrenergic beta3; 10 μM; read-out: % Inhibition of Control Specific Binding
[6] = biological target: receptors (Bioprint panel) (Homo sapiens, UniProt P32247); details: BOMBESIN BB3 (h) (agonist radioligand); 10 μM; read-out: % Inhibition of Control Specific Binding
[7] = biological target: receptors (Bioprint panel) (Homo sapiens, UniProt P35414); details: APJ (apelin) (h) (agonist radioligand); 10 μM; read-out: % Inhibition of Control Specific Binding
[8] = biological target: receptors (Bioprint panel) (Homo sapiens, UniProt P31645); details: 5-HT transporter (h) (antagonist radioligand); 10 μM; read-out: % Inhibition of Control Specific Binding
[9] = biological target: receptors (Bioprint panel) (Homo sapiens, UniProt P34969); details: read-out: % Inhibition of Control Specific Binding
[10] = biological target: receptors (Bioprint panel) (Homo sapiens, UniProt P08588); details: […] beta 1 (h) (agonist radioligand); 10 μM; read-out: % Inhibition of Control Specific Binding
[11] = biological target: receptors (Bioprint panel) (Homo sapiens, UniProt P34998); details: COR[…] FACTOR CRF1 (h) (agonist radioligand); 10 μM; read-out: % Inhibition of Control Specific Binding
[12] = biological target: receptors (Bioprint panel) (Homo sapiens, UniProt Q9UKP6); details: read-out: % Inhibition of Control Specific Binding
[13] = biological target: receptors (Bioprint panel) (Homo sapiens, UniProt P25105); details: […] ACTIVATED FACTOR PAF (h) (agonist radioligand); 10 μM; read-out: % Inhibition of Control Specific Binding
[14] = biological target: receptors (Bioprint panel) (Rattus norvegicus, UniProt P35439); details: read-out: % Inhibition of Control Specific Binding
[15] = biological target: receptors (Bioprint panel) (Homo sapiens, UniProt P21554); details: CANNABINOID CB1 (h) (agonist radioligand); 10 μM; read-out: % Inhibition of Control Specific Binding
[16] = biological target: receptors (Bioprint panel) (Homo sapiens, UniProt P32239); details: CHOLECYSTOKININ CCK2 (CCKB) (h) (agonist radioligand); 10 μM; read-out: % Inhibition of Control Specific Binding
[17] = biological target: receptors (Bioprint panel) (Homo sapiens, UniProt P43119); details: […] (PGI2) (h) (agonist radioligand); 10 μM; read-out: % Inhibition of Control Specific Binding
[18] = biological target: receptors (Bioprint panel) (Homo sapiens, UniProt P02708); details: NICOTINIC […] N muscle-type (h) (antagonist radioligand); 10 μM; read-out: % Inhibition of Control Specific Binding
[19] = biological target: receptors (Bioprint panel) (Homo sapiens, UniProt Q01959); details: dopamine transporter (h) (antagonist radioligand); 10 μM; read-out: % Inhibition of Control Specific Binding
[20] = biological target: receptors (Bioprint panel) (Homo sapiens, UniProt P04150); details: read-out: % Inhibition of Control Specific Binding
[21] = biological target: receptors (Bioprint panel) (Homo sapiens, UniProt P28335); details: read-out: % Inhibition of Control Specific Binding
[22] = biological target: receptors (Bioprint panel) (Homo sapiens, UniProt P11229); details: […] M1 (h) (antagonist radioligand); 10 μM; read-out: % Inhibition of Control Specific Binding
[23] = biological target: receptors (Bioprint panel) (Rattus norvegicus, UniProt P28564); details: read-out: % Inhibition of Control Specific Binding
[24] = biological target: receptors (Bioprint panel) (Rattus norvegicus, UniProt P34975); details: OPIOD & OPIOID-LIKE kappa (KOP) (agonist radioligand); 10 μM; read-out: % Inhibition of Control Specific Binding
[25] = biological target: receptors (Bioprint panel) (Homo sapiens, UniProt P43681); details: NICOTINIC […] N neuronal alpha 4beta 2 (h) (agonist radioligand); 10 μM; read-out: % Inhibition of Control Specific Binding
[26] = biological target: receptors (Bioprint panel) (Homo sapiens, UniProt P25101); details: […] (h) (agonist radioligand); 10 μM; read-out: % Inhibition of Control Specific Binding
[27] = biological target: receptors (Bioprint panel) (Homo sapiens, UniProt P35372); details: OPIOD & OPIOID-LIKE mu (MOP) (h) (agonist radioligand); 10 μM; read-out: % Inhibition of Control Specific Binding

Sequence of receptors (Bioprint panel) (Homo sapiens, UniProt P35414) (P35414 whole entry): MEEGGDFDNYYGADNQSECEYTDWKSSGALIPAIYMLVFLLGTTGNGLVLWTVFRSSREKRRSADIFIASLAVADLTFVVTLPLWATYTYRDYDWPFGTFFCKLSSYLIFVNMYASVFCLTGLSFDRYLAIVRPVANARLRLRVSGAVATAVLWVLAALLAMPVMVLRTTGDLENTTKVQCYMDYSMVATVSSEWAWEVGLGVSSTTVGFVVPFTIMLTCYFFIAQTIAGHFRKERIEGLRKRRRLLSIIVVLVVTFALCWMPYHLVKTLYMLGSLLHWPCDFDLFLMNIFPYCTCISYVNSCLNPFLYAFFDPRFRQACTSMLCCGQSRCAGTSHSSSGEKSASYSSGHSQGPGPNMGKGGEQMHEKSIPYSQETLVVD
Sequence of receptors (Bioprint panel) (Homo sapiens, UniProt Q9UKP6) (Q9UKP6 whole entry): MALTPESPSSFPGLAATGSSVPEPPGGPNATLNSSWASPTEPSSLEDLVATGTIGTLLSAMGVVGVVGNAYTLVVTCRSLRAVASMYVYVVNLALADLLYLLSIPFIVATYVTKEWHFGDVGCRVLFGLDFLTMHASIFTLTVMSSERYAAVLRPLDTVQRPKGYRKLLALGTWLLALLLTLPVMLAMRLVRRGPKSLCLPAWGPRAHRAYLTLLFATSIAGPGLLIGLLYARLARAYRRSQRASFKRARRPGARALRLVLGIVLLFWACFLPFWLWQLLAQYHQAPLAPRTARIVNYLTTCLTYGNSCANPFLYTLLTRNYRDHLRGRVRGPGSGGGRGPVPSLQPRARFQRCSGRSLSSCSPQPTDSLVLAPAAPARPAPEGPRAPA
Sequence of receptors (Bioprint panel) (Homo sapiens, UniProt P02708) (P02708 whole entry): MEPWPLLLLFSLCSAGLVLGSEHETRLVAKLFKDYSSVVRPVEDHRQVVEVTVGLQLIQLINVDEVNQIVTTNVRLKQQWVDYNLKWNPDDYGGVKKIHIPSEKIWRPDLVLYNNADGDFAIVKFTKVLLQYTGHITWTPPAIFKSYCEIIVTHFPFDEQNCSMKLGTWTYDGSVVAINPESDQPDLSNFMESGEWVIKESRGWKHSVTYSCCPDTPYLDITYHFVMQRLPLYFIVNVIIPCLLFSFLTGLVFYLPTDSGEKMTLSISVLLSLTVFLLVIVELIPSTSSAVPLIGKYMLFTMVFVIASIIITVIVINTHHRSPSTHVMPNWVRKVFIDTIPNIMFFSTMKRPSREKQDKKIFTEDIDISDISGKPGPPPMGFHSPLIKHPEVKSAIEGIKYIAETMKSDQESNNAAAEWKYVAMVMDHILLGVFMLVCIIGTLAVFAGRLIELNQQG
Sequence of receptors (Bioprint panel) (Homo sapiens, UniProt P08588) (P08588 whole entry): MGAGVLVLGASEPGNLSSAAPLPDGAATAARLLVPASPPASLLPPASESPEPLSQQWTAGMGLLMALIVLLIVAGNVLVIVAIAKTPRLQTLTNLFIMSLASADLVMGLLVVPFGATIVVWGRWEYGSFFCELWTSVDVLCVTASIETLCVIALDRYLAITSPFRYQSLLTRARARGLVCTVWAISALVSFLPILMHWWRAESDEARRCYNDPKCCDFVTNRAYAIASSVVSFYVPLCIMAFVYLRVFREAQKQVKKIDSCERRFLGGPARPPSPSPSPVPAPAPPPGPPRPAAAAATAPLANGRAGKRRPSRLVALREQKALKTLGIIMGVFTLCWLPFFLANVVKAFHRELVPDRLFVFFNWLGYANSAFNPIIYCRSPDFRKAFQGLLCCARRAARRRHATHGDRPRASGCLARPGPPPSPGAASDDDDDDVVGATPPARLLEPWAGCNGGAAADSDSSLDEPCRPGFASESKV
Sequence of receptors (Bioprint panel) (Homo sapiens, UniProt P28335) (P28335 33-458): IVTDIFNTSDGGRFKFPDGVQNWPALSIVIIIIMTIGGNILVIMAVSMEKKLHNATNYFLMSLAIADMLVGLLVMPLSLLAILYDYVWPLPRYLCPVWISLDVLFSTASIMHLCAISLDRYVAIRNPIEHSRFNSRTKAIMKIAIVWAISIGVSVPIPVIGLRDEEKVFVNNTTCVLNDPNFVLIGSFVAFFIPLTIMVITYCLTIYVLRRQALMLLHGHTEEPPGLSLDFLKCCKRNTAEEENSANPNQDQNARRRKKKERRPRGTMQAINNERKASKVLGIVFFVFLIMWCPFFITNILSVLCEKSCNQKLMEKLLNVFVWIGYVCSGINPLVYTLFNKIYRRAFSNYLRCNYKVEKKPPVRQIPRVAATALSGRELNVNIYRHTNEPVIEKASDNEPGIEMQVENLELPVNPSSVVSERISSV
Sequence of receptors (Bioprint panel) (Homo sapiens, UniProt P34969) (P34969 whole entry): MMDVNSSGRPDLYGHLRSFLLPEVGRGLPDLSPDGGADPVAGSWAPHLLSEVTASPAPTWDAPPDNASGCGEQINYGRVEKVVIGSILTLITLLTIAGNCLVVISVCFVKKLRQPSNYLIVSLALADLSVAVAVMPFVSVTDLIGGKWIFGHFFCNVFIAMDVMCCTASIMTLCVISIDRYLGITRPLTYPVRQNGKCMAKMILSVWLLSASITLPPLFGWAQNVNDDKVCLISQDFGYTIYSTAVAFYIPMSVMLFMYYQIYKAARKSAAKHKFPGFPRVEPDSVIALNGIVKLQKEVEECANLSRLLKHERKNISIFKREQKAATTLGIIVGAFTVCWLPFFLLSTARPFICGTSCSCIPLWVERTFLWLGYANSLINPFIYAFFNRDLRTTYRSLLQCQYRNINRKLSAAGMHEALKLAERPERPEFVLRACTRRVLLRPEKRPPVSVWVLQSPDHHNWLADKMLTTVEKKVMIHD
Sequence of receptors (Bioprint panel) (Homo sapiens, UniProt Q9Y5N1) (Q9Y5N1 whole entry): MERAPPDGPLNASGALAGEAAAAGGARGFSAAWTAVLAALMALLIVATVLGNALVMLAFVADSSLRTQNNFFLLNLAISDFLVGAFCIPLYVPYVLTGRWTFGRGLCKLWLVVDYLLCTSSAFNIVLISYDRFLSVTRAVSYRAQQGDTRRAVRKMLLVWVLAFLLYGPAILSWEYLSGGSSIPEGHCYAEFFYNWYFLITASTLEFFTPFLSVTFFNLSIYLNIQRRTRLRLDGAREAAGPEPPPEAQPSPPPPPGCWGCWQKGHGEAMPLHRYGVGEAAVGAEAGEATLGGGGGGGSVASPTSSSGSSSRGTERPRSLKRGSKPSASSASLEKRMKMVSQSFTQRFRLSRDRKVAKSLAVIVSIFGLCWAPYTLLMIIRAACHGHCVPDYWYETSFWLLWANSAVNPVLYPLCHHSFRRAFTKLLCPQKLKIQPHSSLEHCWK
Sequence of receptors (Bioprint panel) (Homo sapiens, UniProt P35368) (P35368 whole entry): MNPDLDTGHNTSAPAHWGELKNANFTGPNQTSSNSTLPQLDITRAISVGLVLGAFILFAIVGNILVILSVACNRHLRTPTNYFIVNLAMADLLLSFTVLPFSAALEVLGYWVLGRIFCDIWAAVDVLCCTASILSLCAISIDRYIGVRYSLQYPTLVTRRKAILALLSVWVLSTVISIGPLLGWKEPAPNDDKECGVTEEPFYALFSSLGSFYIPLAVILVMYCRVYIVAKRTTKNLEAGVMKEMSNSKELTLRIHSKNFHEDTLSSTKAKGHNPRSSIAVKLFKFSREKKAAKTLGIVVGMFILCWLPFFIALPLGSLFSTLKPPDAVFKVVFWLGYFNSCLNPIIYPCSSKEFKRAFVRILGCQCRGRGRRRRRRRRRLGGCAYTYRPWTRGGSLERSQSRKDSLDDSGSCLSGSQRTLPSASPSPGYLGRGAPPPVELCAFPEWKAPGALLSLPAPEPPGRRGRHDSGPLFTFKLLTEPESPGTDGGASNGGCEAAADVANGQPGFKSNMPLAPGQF
Sequence of receptors (Bioprint panel) (Homo sapiens, UniProt Q01959) (Q01959 whole entry): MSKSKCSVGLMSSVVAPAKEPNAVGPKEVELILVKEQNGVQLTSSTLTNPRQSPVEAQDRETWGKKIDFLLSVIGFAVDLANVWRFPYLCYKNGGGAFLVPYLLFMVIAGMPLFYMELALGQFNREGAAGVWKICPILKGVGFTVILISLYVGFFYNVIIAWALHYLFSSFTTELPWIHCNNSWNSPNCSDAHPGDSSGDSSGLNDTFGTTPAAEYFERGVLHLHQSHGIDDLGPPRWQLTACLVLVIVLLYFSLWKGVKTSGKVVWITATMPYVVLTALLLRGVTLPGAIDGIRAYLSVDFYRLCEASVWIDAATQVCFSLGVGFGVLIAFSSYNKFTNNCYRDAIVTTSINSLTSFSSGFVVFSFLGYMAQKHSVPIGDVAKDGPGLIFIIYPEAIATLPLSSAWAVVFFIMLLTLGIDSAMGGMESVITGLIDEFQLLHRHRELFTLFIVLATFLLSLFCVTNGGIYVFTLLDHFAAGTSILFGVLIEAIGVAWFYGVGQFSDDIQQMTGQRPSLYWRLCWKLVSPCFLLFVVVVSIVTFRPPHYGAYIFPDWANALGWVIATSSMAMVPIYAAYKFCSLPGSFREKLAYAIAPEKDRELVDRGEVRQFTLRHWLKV
Sequence of receptors (Bioprint panel) (Homo sapiens, UniProt P32239) (P32239 whole entry): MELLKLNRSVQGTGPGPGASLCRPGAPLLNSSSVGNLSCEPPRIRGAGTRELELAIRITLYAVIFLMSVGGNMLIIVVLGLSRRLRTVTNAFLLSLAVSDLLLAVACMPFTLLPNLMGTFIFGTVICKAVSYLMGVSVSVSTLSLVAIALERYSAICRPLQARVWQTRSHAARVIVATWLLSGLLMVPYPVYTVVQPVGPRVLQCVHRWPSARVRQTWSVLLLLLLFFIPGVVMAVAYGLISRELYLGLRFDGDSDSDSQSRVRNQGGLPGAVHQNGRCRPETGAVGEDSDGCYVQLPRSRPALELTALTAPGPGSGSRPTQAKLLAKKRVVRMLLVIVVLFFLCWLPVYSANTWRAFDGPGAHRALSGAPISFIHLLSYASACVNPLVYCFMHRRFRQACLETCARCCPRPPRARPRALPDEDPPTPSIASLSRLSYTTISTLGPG

`CC(C)=CCC[C@H](CO)[C@@H]1CC[C@@H](C)c2c1cc(C)c(O)c2O` [Compound 1, 7,8,18-trihydroxyserrulat-14-ene] was tested. Which inhibition at 10 µM [1] did it give?
The inhibition at 10 µM was 10%.

What about the inhibition at 10 µM [2] of the same molecule?
Its inhibition at 10 µM is 40%.

And the inhibition at 10 µM [3]?
The inhibition at 10 µM was 41%.

What about the inhibition at 10 µM [4] of the same molecule?
Its inhibition at 10 µM is 18%.

What about the inhibition at 10 µM [5] of the same molecule?
The inhibition at 10 µM was 33%.

And the inhibition at 10 µM [6]?
The inhibition at 10 µM was 26%.

What about the inhibition at 10 µM [7] of the same molecule?
The inhibition at 10 µM was 24%.

What about the inhibition at 10 µM [8] of the same molecule?
The inhibition at 10 µM was 56%.

What about the inhibition at 10 µM [9] of the same molecule?
The inhibition at 10 µM was 14%.

And the inhibition at 10 µM [10]?
The inhibition at 10 µM was 19%.

What about the inhibition at 10 µM [11] of the same molecule?
The inhibition at 10 µM was 34%.

What about the inhibition at 10 µM [12] of the same molecule?
The inhibition at 10 µM was 46%.

What about the inhibition at 10 µM [13] of the same molecule?
Its inhibition at 10 µM is 39%.

And the inhibition at 10 µM [14]?
Its inhibition at 10 µM is 4%.

What about the inhibition at 10 µM [15] of the same molecule?
Its inhibition at 10 µM is 46%.

What about the inhibition at 10 µM [16] of the same molecule?
Its inhibition at 10 µM is 6%.

What about the inhibition at 10 µM [17] of the same molecule?
Its inhibition at 10 µM is 16%.

What about the inhibition at 10 µM [18] of the same molecule?
The inhibition at 10 µM was 1%.

And the inhibition at 10 µM [19]?
Its inhibition at 10 µM is 63%.

And the inhibition at 10 µM [20]?
The inhibition at 10 µM was 47%.

And the inhibition at 10 µM [21]?
The inhibition at 10 µM was 32%.

And the inhibition at 10 µM [22]?
Its inhibition at 10 µM is 8%.

What about the inhibition at 10 µM [23] of the same molecule?
The inhibition at 10 µM was 42%.

And the inhibition at 10 µM [24]?
Its inhibition at 10 µM is 39%.

And the inhibition at 10 µM [25]?
The inhibition at 10 µM was -3%.

What about the inhibition at 10 µM [26] of the same molecule?
Its inhibition at 10 µM is 6%.

And the inhibition at 10 µM [27]?
Its inhibition at 10 µM is 43%.
